In patent publication US8846713B2, “Fused heterocyclic compounds as phosphodiesterases (PDEs) inhibitors” (Takeda Pharmaceutical Company Limited, priority 2010, dated 2014):
Structures can show the parent of a compound that is named as a salt.

Target: T1, Human PDE10A enzyme (Homo sapiens, UniProt Q9Y233)
T1 construct: transfected with the full-length gene; His-tag; made in house; host or cells: Sf9 or COS-7 cells
Assay: PDE enzyme inhibition, SPA (Scintillation Proximity Assay) with [3H]cGMP
Assay type: biochemical
Settings: [3H]cGMP substrate; for inhibition at 1 µM: compound 1 μM, read-out: Percent inhibition (1 μM); for inhibition at 10 µM: compound 10 μM, read-out: Percent inhibition (10 μM); for inhibition at 0.1 µM: compound 0.1 μM, read-out: Percent inhibition (0.1 μM)
Protocol: Human PDE10A enzyme was generated from Sf9 or COS-7 cells transfected with the full-length gene. Cloned enzyme was extracted from homogenized cell pellets. The extracted enzyme from sf9 cells was partially purified using His-tag affinity column. The enzyme was stored at −70° C. until use. PDE activity was measured using a SPA (Scintillation Proximity Assay) (GE Healthcare). To evaluate the inhibitory activity, 10 μL of serial diluted compounds were incubated with 20 μL of PDE enzyme in assay buffer (50 mM HEPES-NaOH, 8.3 mM MgCl2, 1.7 mM EGTA, 0.1% BSA (pH 7.4)) for 30 min. at room temperature. Final concentration of DMSO in the assay was 1 percent as compounds were tested in duplicate in 96-well half-area plates (Corning). To start the reaction, 10 μL of substrate [^3H] cGMP (25 or 50 nM; enclosed in SPA kits from GE Healthcare or purchased from PerkinElmer, respectively) was added for a final assay volume of 40 μL. After 60 min incubation at room temperature, yttrium SPA beads containing Zinc sulphate were added (20 μL at 6 mg/mL) to terminate the PDE reaction. After being settled for 60 min, assay plates were counted in a scintillation counter (PerkinElmer) to allow calculation of inhibition rate. Inhibition rate was calculated on the basis of 0% control wells with DMSO and 100% control wells without enzyme.

T1 sequence (Q9Y233 267-1055): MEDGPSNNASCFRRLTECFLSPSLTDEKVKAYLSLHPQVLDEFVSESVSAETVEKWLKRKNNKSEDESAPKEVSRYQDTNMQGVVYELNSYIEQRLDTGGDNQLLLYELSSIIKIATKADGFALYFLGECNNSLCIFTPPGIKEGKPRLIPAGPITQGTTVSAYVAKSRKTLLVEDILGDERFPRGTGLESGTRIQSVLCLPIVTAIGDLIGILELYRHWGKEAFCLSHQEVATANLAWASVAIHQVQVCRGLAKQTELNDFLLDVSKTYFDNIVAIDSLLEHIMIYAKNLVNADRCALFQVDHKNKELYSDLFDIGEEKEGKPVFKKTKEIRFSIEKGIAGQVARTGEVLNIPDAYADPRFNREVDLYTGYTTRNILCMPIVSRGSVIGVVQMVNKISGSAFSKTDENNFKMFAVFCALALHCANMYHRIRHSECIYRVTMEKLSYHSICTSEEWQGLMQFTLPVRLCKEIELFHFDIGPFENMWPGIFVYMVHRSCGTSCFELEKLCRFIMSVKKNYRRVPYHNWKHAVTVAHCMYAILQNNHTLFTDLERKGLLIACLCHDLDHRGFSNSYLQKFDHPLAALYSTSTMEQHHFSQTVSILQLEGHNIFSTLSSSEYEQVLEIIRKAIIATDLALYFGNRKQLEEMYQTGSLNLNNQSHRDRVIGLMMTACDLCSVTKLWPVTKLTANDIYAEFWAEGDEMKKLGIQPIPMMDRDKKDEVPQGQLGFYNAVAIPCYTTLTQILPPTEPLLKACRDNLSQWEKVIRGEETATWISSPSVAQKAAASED

| SMILES | inhibition at 1 µM | inhibition at 10 µM | inhibition at 0.1 µM |
| --- | --- | --- | --- |
| O=c1[nH]c2cccnc2n1-c1ccc(Nc2nc3ccccc3o2)cc1 [Example 1, 3-[4-(1,3-benzoxazol-2-ylamino)phenyl]-1,3-dihydro-2H-imidazo[4,5-b]pyridin-2-one] | 98% | 100% |  |
| O=c1[nH]c2cccnc2n1-c1ccc(N2CCn3c2nc2ccccc23)cc1 [Example 2, 3-[4-(2,3-dihydro-1H-imidazo[1,2-a]benzimidazol-1-yl)phenyl]-1,3-dihydro-2H-imidazo[4,5-b]pyridin-2-one] | 104% | 103% |  |
| CC1(C)C(=O)N(c2ccc(Oc3nc4ccccc4[nH]3)cc2)c2ncccc21 [Example 9, 1-[4-(1H-benzimidazol-2-yloxy)phenyl]-3,3-dimethyl-1,3-dihydro-2H-pyrrolo[2,3-b]pyridin-2-one dihydrochloride] | 99% | 99% |  |
| CCn1c(=O)n(-c2ccc(-n3ncc4cccnc43)cc2)c2ncccc21 [Example 12, 1-Ethyl-3-[4-(1H-pyrazolo[3,4-b]pyridin-1-yl)phenyl]-1,3-dihydro-2H-imidazo[4,5-b]pyridin-2-one] | 93% | 99% |  |
| CCn1c(=O)n(-c2ccc3c(c2)CCN3c2nc3ccccc3[nH]2)c2ncccc21 [Example 13, 3-[1-(1H-benzimidazol-2-yl)-2,3-dihydro-1H-indol-5-yl]-1-ethyl-1,3-dihydro-2H-imidazo[4,5-b]pyridin-2-one] | 100% | 101% |  |
| CCn1c(=O)n(-c2ccc(N3CCn4c3nc3ccccc34)cc2)c2ncccc21 [Example 24, 3-[4-(2,3-dihydro-1H-imidazo[1,2-a]benzimidazol-1-yl)phenyl]-1-ethyl-1,3-dihydro-2H-imidazo[4,5-b]pyridin-2-one] |  |  | 98% |
| CCn1c(=O)n(-c2ccc(Nc3nc4ccc(F)cc4o3)cc2)c2ncccc21 [Example 27, 1-ethyl-3-{4-[(6-fluoro-1,3-benzoxazol-2-yl)amino]phenyl)-1,3-dihydro-2H-imidazo[4,5-b]pyridin-2-one] |  |  | 102% |
| CCn1c(=O)n(-c2ccc(Oc3cn4ccccc4n3)cc2)c2ncccc21 [Example 31, 1-ethyl-3-[4-(imidazo[1,2-a]pyridin-2-yloxy)phenyl]-1,3-dihydro-2H-imidazo[4,5-b]pyridin-2-one] | 99% | 98% |  |
| CCn1c(=O)n(-c2ccc3c(c2)CCN3c2nc3ccccc3n2C)c2ncccc21 [Example 48, 1-ethyl-3-[1-(1-methyl-1H-benzimidazol-2-yl)-2,3-dihydro-1H-indol-5-yl]-1,3-dihydro-2H-imidazo[4,5-b]pyridin-2-one] | 96% | 100% |  |
| CCn1c(=O)n(-c2ccc(Oc3nc4ccccc4[nH]3)cc2)c2nccc(C)c21 [Example 64, 3-[4-(1H-benzimidazol-2-yloxy)phenyl]-1-ethyl-7-methyl-1,3-dihydro-2H-imidazo[4,5-b]pyridin-2-one dihydrochloride] | 100% | 101% |  |
| CCn1c(=O)n(-c2ccc3c(c2)CCN3c2nc3cccnc3[nH]2)c2ncccc21 [Example 71, 1-ethyl-3-[1-(3H-imidazo[4,5-b]pyridin-2-yl)-2,3-dihydro-1H-indol-5-yl]-1,3-dihydro-2H-imidazo[4,5-b]pyridin-2-one] | 99% | 97% |  |
| CC(C)n1c(=O)n(-c2ccc3c(c2)CCN3c2nc3cccnc3[nH]2)c2ncccc21 [Example 72, 3-[1-(3H-imidazo[4,5-b]pyridin-2-yl)-2,3-dihydro-1H-indol-5-yl]-1-(1-methylethyl)-1,3-dihydro-2H-imidazo[4,5-b]pyridin-2-one] | 104% | 110% |  |
| CCn1c(=O)n(-c2ccc(Oc3nc4cccnc4[nH]3)cc2)c2ncccc21 [Example 75, 1-ethyl-3-[4-(3H-imidazo[4,5-b]pyridin-2-yloxy)phenyl]-1,3-dihydro-2H-imidazo[4,5-b]pyridin-2-one] | 98% | 101% |  |
| CCn1c(=O)n(-c2ccc(Oc3nc4cccnc4n3C)cc2)c2ncc(Cl)cc21 [Example 107, 6-chloro-1-ethyl-3-{4-[(3-methyl-3H-imidazo[4,5-b]pyridin-2-yl)oxy]phenyl}-1,3-dihydro-2H-imidazo[4,5-b]pyridin-2-one] | 103% | 102% |  |
| CCn1c(=O)n(-c2ccc(Oc3nc4cccnc4n3C)cc2)c2ncc(C#N)cc21 [Example 108, 1-ethyl-3-{4-[(3-methyl-3H-imidazo[4,5-b]pyridin-2-yl)oxy]phenyl}-2-oxo-2,3-dihydro-1H-imidazo[4,5-b]pyridine-6-carbonitrile] | 100% | 102% |  |

The next lines start with the values.

| inhibition at 1 µM | inhibition at 10 µM | inhibition at 0.1 µM | SMILES |
| --- | --- | --- | --- |
|  |  | 99% | Cn1c(=O)n(-c2ccc(N3CCn4c3nc3ccccc34)cc2)c2ncccc21 [Example 3, 3-[4-(2,3-dihydro-1H-imidazo[1,2-a]benzimidazol-1-yl)phenyl]-1-methyl-1,3-dihydro-2H-imidazo[4,5-b]pyridin-2-one] |
|  |  | 98% | CCn1c(=O)n(-c2ccc(Oc3nc4ccccc4[nH]3)cc2)c2ncccc21 [Example 8, 3-[4-(1H-benzimidazol-2-yloxy)phenyl]-1-ethyl-1,3-dihydro-2H-imidazo[4,5-b]pyridin-2-one hydrochloride] |
| 100% | 101% |  | CCn1c(=O)n(-c2ccc(Oc3nc4ccccc4n3CCO)cc2)c2ncccc21 [Example 39, 1-ethyl-3-(4-{[1-(2-hydroxyethyl)-1H-benzimidazol-2-yl]oxy}phenyl)-1,3-dihydro-2H-imidazo[4,5-b]pyridin-2-one] |
| 99% | 101% |  | CCn1c(=O)n(-c2ccc(Oc3nc4ccccc4n3CC(C)(C)O)cc2)c2ncccc21 [Example 40, 1-ethyl-3-(4-{[1-(2-hydroxy-2-methylpropyl)-1H-benzimidazol-2-yl]oxy}phenyl)-1,3-dihydro-2H-imidazo[4,5-b]pyridin-2-one] |
| 95% | 99% |  | CCn1c(=O)n(-c2ccc(Oc3nc4ncccc4n3C)cc2)c2ncccc21 [Example 85, 1-ethyl-3-{4-[(1-methyl-1H-imidazo[4,5-b]pyridin-2-yl)oxy]phenyl}-1,3-dihydro-2H-imidazo[4,5-b]pyridin-2-one] |
| 97% | 98% |  | CCn1c(=O)n(-c2ccc(Oc3nc4cccnc4n3C)cc2)c2ncccc21 [Example 86, 1-ethyl-3-{4-[(3-methyl-3H-imidazo[4,5-b]pyridin-2-yl)oxy]phenyl}-1,3-dihydro-2H-imidazo[4,5-b]pyridin-2-one] |
| 97% | 98% |  | CCCn1c(=O)n(-c2ccc(Oc3nc4cccnc4n3C)cc2)c2ncccc21 [Example 97, 3-{4-[(3-methyl-3H-imidazo[4,5-b]pyridin-2-yl)oxy]phenyl}-1-propyl-1,3-dihydro-2H-imidazo[4,5-b]pyridin-2-one] |
| 99% | 101% |  | CC(C)n1c(=O)n(-c2ccc(Oc3nc4cccnc4n3C)cc2)c2ncccc21 [Example 98, 1-(1-methylethyl)-3-{4-[(3-methyl-3H-imidazo[4,5-b]pyridin-2-yl)oxy]phenyl}-1,3-dihydro-2H-imidazo[4,5-b]pyridin-2-one] |
| 100% | 105% |  | Cn1c(Oc2ccc(-n3c(=O)n(C4CC4)c4cccnc43)cc2)nc2cccnc21 [Example 99, 1-cyclopropyl-3-{4-[(3-methyl-3H-imidazo[4,5-b]pyridin-2-yl)oxy]phenyl}-1,3-dihydro-2H-imidazo[4,5-b]pyridin-2-one] |
| 99% | 100% |  | Cn1c(Oc2ccc(-n3c(=O)n(C(F)F)c4cccnc43)cc2)nc2ccccc21 [Example 100, 1-(difluoromethyl)-3-{4-[(1-methyl-1H-benzimidazol-2-yl)oxy]phenyl}-1,3-dihydro-2H-imidazo[4,5-b]pyridin-2-one] |
| 101% | 99% |  | Cn1c(Oc2ccc(-n3c(=O)n(C(F)F)c4cccnc43)cc2)nc2cccnc21 [Example 101] |
| 99% | 106% |  | Cn1c(Oc2ccc(N3C(=O)C(C)(C)c4cccnc43)cc2)nc2ccccc21 [Example 102, 3,3-dimethyl-1-{4-[(1-methyl-1H-benzimidazol-2-yl)oxy]phenyl}-1,3-dihydro-2H-pyrrolo[2,3-b]pyridin-2-one] |
| 101% | 103% |  | Cn1c(Oc2ccc(-n3c(=O)n(C4CC4)c4cccnc43)cc2)nc2ccccc21 [Example 103, 1-cyclopropyl-3-{4-[(1-methyl-1H-benzimidazol-2-yl)oxy]phenyl}-1,3-dihydro-2H-imidazo[4,5-b]pyridin-2-one] |
| 99% | 102% |  | CCn1c(=O)n(-c2ccc(Oc3nc4ccccc4n3C)cc2)c2ncc(C#N)cc21 [Example 109, 1-ethyl-3-{4-[(1-methyl-1H-benzimidazol-2-yl)oxy]phenyl}-2-oxo-2,3-dihydro-1H-imidazo[4,5-b]pyridine-6-carbonitrile] |
